# Literature values in patent US20110047631A1, “HEAT SHOCK PROTEIN DEFICIENCIES AS MODEL SYSTEMS FOR BRAIN PATHOLOGY AND CANCER” (Medical College of Georgia Research Institute Inc., priority 2009, published 2011).
# Assays:
# [1] = tested on: mouse models of Amyotrophic Lateral Sclerosis (ALS)
# [2] = 8 mg/kg per mice daily dose
smiles,measurement,setting,value
CC1=C(O)C(=O)C=C2C1=CC=C1[C@@]2(C)CC[C@@]2(C)[C@@H]3C[C@](C)(C(=O)O)CC[C@]3(C)CC[C@]12C [Celasterol],neuronal cell death and life span,[1],block neuronal cell death and extend the life of these mice
same,toxicity,[2],no toxicity
same,expression of Hsps,Hsps,enhance the expression of Hsps
